Assay results from US20040171658A1, “Carbohydrate derivatives” (priority 2001, published 2004).
Where a name gives a salt, the structure may show the parent alone.

Columns and labels:
TF/FVIIa = TF/FVIIa (Homo sapiens, UniProt P08709); test: TF/factor VIIa inhibition (TF/FVIIa-IC50); assay type: biochemical
From the text: The inhibition of factor VIIa by the compounds according to the invention and the measurement of the anticoagulant and antithrombotic activity can be determined by conventional in-vitro or in-vivo methods. A conventional method for the measurement of the inhibition of factor VIIa is described, for example, by H. F. Ronning et al. in Thrombosis Research 1996, 84, 73-81.

FXa = FXa (Homo sapiens, UniProt P00742); test: Factor Xa inhibition (FXa-IC50); assay type: biochemical
FXa, sequence (P00742 235-488 limits assumed): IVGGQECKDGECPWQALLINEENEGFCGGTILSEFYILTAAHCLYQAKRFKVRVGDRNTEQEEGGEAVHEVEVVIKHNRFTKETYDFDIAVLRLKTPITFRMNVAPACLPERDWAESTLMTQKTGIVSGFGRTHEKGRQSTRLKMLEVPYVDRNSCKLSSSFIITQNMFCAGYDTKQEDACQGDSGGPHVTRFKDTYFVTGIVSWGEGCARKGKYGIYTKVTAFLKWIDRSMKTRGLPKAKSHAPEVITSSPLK
FXa, sequence (P00742 41-179 partner limits assumed): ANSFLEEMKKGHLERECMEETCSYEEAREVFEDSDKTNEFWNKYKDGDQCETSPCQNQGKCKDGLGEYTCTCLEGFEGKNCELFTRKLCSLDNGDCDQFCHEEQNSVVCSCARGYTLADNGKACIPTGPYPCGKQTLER
From the text: The inhibition of factor Xa by the compounds according to the invention and the measurement of the anticoagulant and antithrombotic activity can be determined by conventional in-vitro or in-vivo methods. A suitable method is described, for example, by J. Hauptmann et al. in Thrombosis and Haemostasis 1990, 63, 220-223.
The inhibition of factor Xa can be measured, for example, by the method of T. Hara et al. in Thromb. Haemostas. 1994, 71, 314-319.

TF/FVIIa, sequence (P08709 213-466 limits assumed): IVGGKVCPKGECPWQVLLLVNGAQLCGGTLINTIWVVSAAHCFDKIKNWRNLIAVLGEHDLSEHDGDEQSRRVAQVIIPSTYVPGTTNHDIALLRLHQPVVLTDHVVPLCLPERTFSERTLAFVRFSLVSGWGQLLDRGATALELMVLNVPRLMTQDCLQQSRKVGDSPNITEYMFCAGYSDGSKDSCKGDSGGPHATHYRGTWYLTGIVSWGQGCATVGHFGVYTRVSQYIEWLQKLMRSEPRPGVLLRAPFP
TF/FVIIa, sequence (P08709 61-212 partner limits assumed): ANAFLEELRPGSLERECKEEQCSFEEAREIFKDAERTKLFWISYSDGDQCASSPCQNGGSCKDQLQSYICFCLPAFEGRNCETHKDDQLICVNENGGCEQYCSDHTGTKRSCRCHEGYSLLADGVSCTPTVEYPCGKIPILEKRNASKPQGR
TF/FVIIa, sequence (P13726 33-295 partner): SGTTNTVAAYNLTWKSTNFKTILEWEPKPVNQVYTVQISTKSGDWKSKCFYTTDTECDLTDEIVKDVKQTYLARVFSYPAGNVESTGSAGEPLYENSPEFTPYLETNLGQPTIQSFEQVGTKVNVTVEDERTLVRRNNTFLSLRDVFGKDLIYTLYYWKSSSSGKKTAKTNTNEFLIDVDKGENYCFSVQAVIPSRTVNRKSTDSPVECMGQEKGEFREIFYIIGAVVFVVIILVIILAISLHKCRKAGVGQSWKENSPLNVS

Compound	IC50 (TF/FVIIa)	IC50 (FXa)	melting point
N=C(N)c1ccc(O[C@@H]2CO[C@H]3[C@@H]2OC[C@@H]3OCc2cccc(C(=N)N)c2)cc1 [Compound A2, 2-O-(3′-amidinobenzyl)-5-O-(4″-amidinophenyl)-1,4:3,6-dianhydro-D-sorbitol]	3.9 µM	2.1 µM	–
N=C(N)c1cccc(CO[C@H]2CO[C@H]3[C@@H]2OC[C@H]3Oc2cccc(C(=N)N)c2)c1 (as salt: trifluoroacetate) [Compound A1, 2-O-(3′-Amidinobenzyl)-5-O-(3″-amidinophenyl)-1,4:3,6-dianhydro-D-sorbitol]	–	–	155 °C
N=C(N)c1cccc(CO[C@H]2CO[C@H]3[C@@H]2OC[C@H]3Oc2cccc(C(=N)N)c2)c1 [Compound A1, 2-O-(3′-Amidinobenzyl)-5-O-(3″-amidinophenyl)-1,4:3,6-dianhydro-D-sorbitol]	–	7.9 µM	–

Further lines, results first:

IC50 (TF/FVIIa)	IC50 (FXa)	melting point	Compound
0.1 µM	0.15 µM	–	N=C(N)c1ccc(O[C@@H]2CO[C@H]3[C@@H]2OC[C@@H]3Oc2cccc(C(=N)N)c2)cc1 [Compound B1, 2-O-(3′-Amidinophenyl)-5-O-(4″-amidinophenyl)-1,4:3,6-dianhydro-D-sorbitol]
6 µM	3 µM	–	N=C(N)c1cccc(O[C@H]2CO[C@H]3[C@@H]2OC[C@H]3Oc2cccc(C(=N)N)c2)c1 [Compound B2, 2-O-(3′-amidinophenyl)-5-O-(3″-amidinophenyl)-1,4:3,6-dianhydro-D-sorbitol]
–	–	225 °C (dec.)	N=C(N)c1ccc(O[C@@H]2CO[C@H]3[C@@H]2OC[C@@H]3Oc2cccc(C(=N)N)c2)cc1 (as salt: trifluoroacetate) [Compound B1, 2-O-(3′-Amidinophenyl)-5-O-(4″-amidinophenyl)-1,4:3,6-dianhydro-D-sorbitol]
